What was measured:
Assay type in all cases: cell-based
IGROV1 = experiment: SRB growth inhibition, IGROV1; conditions: Homo sapiens, IGROV-1, IGROV1, Ovarian Cancer, 48 h
Description: (§1) Human tumor cell lines were grown in RPM(1640 medium containing 5% fetal bovine serum and 2 mM L-glutamine. For a typical screening experiment, cells were inoculated into 96 well microtiter plates in 100 μL at plating densities ranging from 5,000 to 40,000 cells/well depending on the doubling time of individual cell lines. After cell inoculation, the microtiter plates were incubated at 37° C., 5% CO2, 95% air and 100% relative humidity for 24 h prior to addition of Compound 3 above.
(§2) After 24 h, two plates of each cell line were fixed in situ with TCA, to represent a measurement of the cell population for each cell line at the time of drug addition (Tz). […]
(§3) Following drug addition, the plates were incubated for an additional 48 h at 37° C., 5% CO2, 95% air, and 100% relative humidity. […] Bound stain was subsequently solubilized with 10 mM trizma base, and the absorbance was read on an automated plate reader at a wavelength of 515 nm. […] Using the seven absorbance measurements [time zero, (Tz), control growth, (C), and test growth in the presence of drug at the five concentration levels (Ti)], the percentage growth was calculated at each of the drug concentrations levels. Percentage growth inhibition was calculated as: [(Ti-Tz)/(C-Tz)]×100 for concentrations for which Ti>/=Tz [(Ti-Tz)/Tz]×100 for concentrations for which Ti<Tz. […]

CAKI-1 = experiment: SRB growth inhibition, CAKI-1; conditions: Homo sapiens, CAKI-1, Renal Cancer, 48 h
Description: as §1, §2, §3

UO-31 = experiment: SRB growth inhibition, UO-31; conditions: Homo sapiens, UO-31, Renal Cancer, 48 h
Description: as §1, §2, §3

MDA-MB-468 = experiment: SRB growth inhibition, MDA-MB-468; conditions: Homo sapiens, MDA-MB-468, Breast Cancer, 48 h
Description: as §1, §2, §3

SW-620 = experiment: SRB growth inhibition, SW-620; conditions: Homo sapiens, SW-620, Colon Cancer, 48 h
Description: as §1, §2, §3

M14 = experiment: SRB growth inhibition, M14; conditions: Homo sapiens, M14, Melanoma, 48 h
Description: as §1, §2, §3

OVCAR-5 = experiment: SRB growth inhibition, OVCAR-5; conditions: Homo sapiens, OVCAR-5, Ovarian Cancer, 48 h
Description: as §1, §2, §3

T-47D = experiment: SRB growth inhibition, T-47D; conditions: Homo sapiens, T47D, Breast Cancer, 48 h
Description: as §1, §2, §3

U251 = experiment: SRB growth inhibition, U251; conditions: Homo sapiens, U-251, U251, CNS Cancer, 48 h
Description: as §1, §2, §3

HT29 = experiment: SRB growth inhibition, HT29; conditions: Homo sapiens, HT-29, HT29, Colon Cancer, 48 h
Description: as §1, §2, §3

MCF7 = experiment: SRB growth inhibition, MCF7; conditions: Homo sapiens, MCF7, Breast Cancer, 48 h
Description: as §1, §2, §3

NCI-H522 = experiment: SRB growth inhibition, NCI-H522; conditions: Homo sapiens, NCI-H522, Non-Small Cell Lung Cancer, 48 h
Description: as §1, §2, §3

BT-549 = experiment: SRB growth inhibition, BT-549; conditions: Homo sapiens, BT-549, Breast Cancer, 48 h
Description: as §1, §2, §3

A498 = experiment: SRB growth inhibition, A498; conditions: Homo sapiens, A498, Renal Cancer, 48 h
Description: as §1, §2, §3

HOP-62 = experiment: SRB growth inhibition, HOP-62; conditions: Homo sapiens, HOP-62, Non-Small Cell Lung Cancer, 48 h
Description: as §1, §2, §3

COLO 205 = experiment: SRB growth inhibition, COLO 205; conditions: Homo sapiens, COLO 205, Colon Cancer, 48 h
Description: as §1, §2, §3

MDA-MB-231/ATCC = experiment: SRB growth inhibition, MDA-MB-231/ATCC; conditions: Homo sapiens, Breast Cancer, 48 h
Description: as §1, §2, §3

SN12C = experiment: SRB growth inhibition, SN12C; conditions: Homo sapiens, Renal Cancer, 48 h
Description: as §1, §2, §3

PC-3 = experiment: SRB growth inhibition, PC-3; conditions: Homo sapiens, PC-3, Prostate Cancer, 48 h
Description: as §1, §2, §3

SK-MEL-2 = experiment: SRB growth inhibition, SK-MEL-2; conditions: Homo sapiens, SK-MEL-2, Melanoma, 48 h
Description: as §1, §2, §3

HCT-116 = experiment: SRB growth inhibition, HCT-116; conditions: Homo sapiens, HCT-116, Colon Cancer, 48 h
Description: as §1, §2, §3

NCI-H322M = experiment: SRB growth inhibition, NCI-H322M; conditions: Homo sapiens, Non-Small Cell Lung Cancer, 48 h
Description: as §1, §2, §3

SF-295 = experiment: SRB growth inhibition, SF-295; conditions: Homo sapiens, SF-295, CNS Cancer, 48 h
Description: as §1, §2, §3

TK-10 = experiment: SRB growth inhibition, TK-10; conditions: Homo sapiens, TK-10, Renal Cancer, 48 h
Description: as §1, §2, §3

LOX IMVI = experiment: SRB growth inhibition, LOX IMVI; conditions: Homo sapiens, Melanoma, 48 h
Description: as §1, §2, §3

786-0 = experiment: SRB growth inhibition, 786-0; conditions: Homo sapiens, 786-0, Renal Cancer, 48 h
Description: as §1, §2, §3

NCI-H460 = experiment: SRB growth inhibition, NCI-H460; conditions: Homo sapiens, NCI-H460, Non-Small Cell Lung Cancer, 48 h
Description: as §1, §2, §3

NCI-H226 = experiment: SRB growth inhibition, NCI-H226; conditions: Homo sapiens, NCI-H226, Non-Small Cell Lung Cancer, 48 h
Description: as §1, §2, §3

SK-MEL-5 = experiment: SRB growth inhibition, SK-MEL-5; conditions: Homo sapiens, SK-MEL-5, Melanoma, 48 h
Description: as §1, §2, §3

RXF 393 = experiment: SRB growth inhibition, RXF 393; conditions: Homo sapiens, RXF 393, Renal Cancer, 48 h
Description: as §1, §2, §3

Which results are given for `S=C(N/N=C1/CCOc2cccnc21)N1CCN(c2ccccn2)CC1` [Example 3, (Z)—N′-(2H-pyrano[3,2-b]pyridin-4(3H)-ylidene)-4-(pyridin-2-yl)piperazine-1-carbothiohydrazide]?
GI50 (IGROV1): < 10 nM; GI50 (CAKI-1): 151 nM; GI50 (UO-31): 132 nM; GI50 (MDA-MB-468): < 10 nM; GI50 (SW-620): < 10 nM; GI50 (M14): 37.5 nM; GI50 (OVCAR-5): 991 nM; GI50 (T-47D): < 10 nM; GI50 (U251): 26.5 nM; GI50 (HT29): < 10 nM; GI50 (MCF7): < 10 nM; GI50 (NCI-H522): 505 nM; GI50 (BT-549): 71.8 nM; GI50 (A498): 192 nM; GI50 (HOP-62): 37.2 nM; GI50 (COLO 205): < 10 nM; GI50 (MDA-MB-231/ATCC): 74.8 nM; GI50 (SN12C): 1490 nM; GI50 (PC-3): < 10 nM; GI50 (SK-MEL-2): 799 nM; GI50 (HCT-116): < 10 nM; GI50 (NCI-H322M): 221 nM; GI50 (SF-295): 232 nM; GI50 (TK-10): 748 nM; GI50 (LOX IMVI): 25.1 nM; GI50 (786-0): 77.1 nM; GI50 (NCI-H460): 38.8 nM; GI50 (NCI-H226): 338 nM; GI50 (SK-MEL-5): 222 nM; GI50 (RXF 393): 1340 nM

Source: patent US10392397B2, “Heterocyclic thiosemicarbazone derivatives and their therapeutical applications” (NANTBIO, INC., priority 2015, dated 2019)
